Test results from ChEMBL document CHEMBL1201862, “PubChem BioAssay data set” (2004).
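Assay format: 96-well plates, 48-hour exposure. The concentration for 50% growth inhibition is given as GI50.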 Calls of active or inactive are those of the source. No stated cut-off is given here; in the data, active = GI50 up to about 1.1 µM and inactive = higher.

Key:
Assay in all cases: NCI tumour cell line growth inhibition, 48 h
A498 = test system: A498
CCRF-CEM = test system: CCRF-CEM
HCC 2998 = test system: HCC 2998
HCT-116 = test system: HCT-116
HL-60 = test system: HL-60
K562 = test system: K562
LOX IMVI = test system: LOX IMVI
M14 = test system: M14
MCF7 = test system: MCF7
Malme-3M = test system: Malme-3M
NCI-H23 = test system: NCI-H23
NCI-H522 = test system: NCI-H522
RPMI-8226 = test system: RPMI-8226
SF-539 = test system: SF-539
SK-MEL-2 = test system: SK-MEL-2
SN12C = test system: SN12C
SR = test system: SR
U-251 = test system: U-251
UO-31 = test system: UO-31
OVCAR-4 = test system: OVCAR-4

Measured: GI50

CCOC(=O)C(OP(=O)(OCC)OCC)C(F)(F)F (stereo not drawn)
inactive: A498 > 100 µM | CCRF-CEM > 100 µM | HCC 2998 > 100 µM | HCT-116 > 100 µM | HL-60 > 100 µM | K562 > 100 µM | LOX IMVI > 100 µM | M14 > 100 µM | MCF7 > 100 µM | Malme-3M > 100 µM | NCI-H23 > 100 µM | NCI-H522 > 100 µM | RPMI-8226 > 100 µM | SF-539 > 100 µM | SK-MEL-2 > 100 µM | SN12C > 100 µM | SR > 100 µM | U-251 > 100 µM | UO-31 > 100 µM

NC(=O)N/N=C\CC(O)(C(F)(F)Cl)C(F)(F)Cl
inactive: A498 > 10 µM | CCRF-CEM > 10 µM | HCC 2998 > 10 µM | HCT-116 > 10 µM | HL-60 > 10 µM | K562 > 10 µM | LOX IMVI > 10 µM | M14 > 10 µM | MCF7 > 10 µM | Malme-3M > 10 µM | NCI-H23 > 10 µM | NCI-H522 > 10 µM | OVCAR-4 > 10 µM | RPMI-8226 > 10 µM | SF-539 > 10 µM | SK-MEL-2 > 10 µM | SN12C > 10 µM | SR > 10 µM | U-251 > 10 µM | UO-31 > 10 µM

O=c1c(-c2ccccc2)c(SCCN2CCCCCC2)n(-c2ccccc2)c(=S)n1-c1ccccc1
inactive: A498 19.7 µM | CCRF-CEM 8.45 µM | HCC 2998 3.52 µM | HL-60 11 µM | K562 19.6 µM | LOX IMVI 50.7 µM | MCF7 24.9 µM | Malme-3M 12.5 µM | NCI-H23 68.9 µM | NCI-H522 20.3 µM | OVCAR-4 15.5 µM | RPMI-8226 20.7 µM | SF-539 > 100 µM | SR 21.8 µM
